Key:
[1] = system: horseweed (Erigeron canadensis); experiment: Test A1 postemergence, horseweed; format: in vivo; details: Postemergence
Method in brief: (§1)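 Plants grown in pots of loam/sand mix; preemergence = soil-directed spray on seeded pots, postemergence = spray at 1–2 leaves, height 2–10 cm; test chemicals formulated in non-phytotoxic solvent with surfactant.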

[2] = system: wheat (Triticum aestivum); experiment: Test A1 postemergence, wheat; format: in vivo; details: for Plant response rating, Wheat: Postemergence; for Wheat plant response rating: postemergence
Method in brief: as §1

[3] = 31 g ai/ha, 0 to 100 scale (0 no effect, 100 complete control), 10 days
[4] = 31 g ai/ha, 0 to 100 scale (0 no effect, 100 complete control)

Row | SMILES | Plant response rating, Horseweed [1, 3] | Plant response rating, Horseweed ([1]; 125 g ai/ha, 0 to 100 scale) | Plant response rating, Wheat [2, 3] | Plant response rating, Wheat ([2]; 125 g ai/ha, 0 to 100 scale) | Wheat plant response rating [2, 4]
1 | Cc1cc(C)c(N(COC(=O)C(C)(C)C)S(=O)(=O)C(F)(F)F)cc1C1=NOC2CCCCCC12 (single isomer, unassigned) [Compound 294] | 10 | 90 | 0 | 20 | –
2 | Cc1cc(C)c(-n2nccc(C)c2=O)cc1NS(=O)(=O)C(F)(F)F [Compound 281] | 100 | 70 | 0 | 20 | –
3 | Cc1c(NS(=O)(=O)C(F)(F)F)cc(C(=O)N(C)C)c(C)c1Cl [Compound 287] | 20 | 40 | 0 | 10 | –
4 | Cc1c(NS(=O)(=O)C(F)(F)F)cc(C(=O)N(C)C)c(C)c1C [Compound 288] | 20 | 30 | 0 | 10 | –
5 | Cc1c(NS(=O)(=O)C(F)(F)F)cc(C(=O)N2CCOCC2)c(C)c1Cl [Compound 290] | 70 | 90 | 0 | 60 | –
6 | Cc1cc(C)c(N(C(=O)OC(C)C)S(=O)(=O)C(F)(F)F)cc1C1=NOC2CCCC12 (stereo not drawn) [Compound 295] | 10 | 50 | 20 | 70 | –
7 | Cc1cc(C)c(N(C(=O)OCC(C)C)S(=O)(=O)C(F)(F)F)cc1C1=NOC2CCCC12 (stereo not drawn) [Compound 299] | 0 | 30 | 30 | 70 | –
8 | Cc1cc(C)c(N(COC(=O)C(C)(C)C)S(=O)(=O)C(F)(F)F)cc1C1=NOC2COCC12 (stereo not drawn) [Compound 301] | 50 | 80 | 0 | 60 | –
9 | Cc1c(NS(=O)(=O)C(F)(F)F)cc(C(=O)N2CC(C)OC(C)C2)c(C)c1C (stereo not drawn) [Compound 328] | – | – | 0 | 50 | –
10 | C#CCN(C)C(=O)c1cc(NS(=O)(=O)C(F)(F)F)c(Cl)c(F)c1C [Compound 337] | – | – | 0 | 30 | –
11 | COCC1CC(c2cc(N(COC(=O)C(C)(C)C)S(=O)(=O)C(F)(F)F)c(C)cc2C)=NO1 (stereo not drawn) [Compound 338] | – | – | 20 | 70 | –
12 | CCC1ON=C(c2cc(NS(=O)(=O)C(F)(F)F)c(C)cc2C)C1CC (stereo not drawn) [Compound 343] | – | – | 30 | 60 | –
13 | CCC1ON=C(c2cc(N(COC(=O)C(C)(C)C)S(=O)(=O)C(F)(F)F)c(C)cc2C)C1CC (stereo not drawn) [Compound 344] | – | – | 40 | 70 | –
14 | CCC1ON=C(c2cc(N(C(=O)OCC(C)C)S(=O)(=O)C(F)(F)F)c(C)cc2C)C1CC (stereo not drawn) [Compound 345] | – | – | 30 | 60 | –
15 | CCC1ON=C(c2cc(NS(=O)(=O)C(F)(F)F)c(C)cc2C)C1CC (stereo not drawn) [Compound 346] | – | – | 30 | 70 | –
16 | CCC1ON=C(c2cc(N(COC(=O)C(C)(C)C)S(=O)(=O)C(F)(F)F)c(C)cc2C)C1CC (stereo not drawn) [Compound 347] | – | – | 0 | 40 | –
17 | CCC1ON=C(c2cc(N(C(=O)OCC(C)C)S(=O)(=O)C(F)(F)F)c(C)cc2C)C1CC (stereo not drawn) [Compound 348] | – | – | 0 | 60 | –
18 | COC1CCN(C(=O)c2cc(NS(=O)(=O)C(F)(F)F)c(C)c(C)c2C)CC1 [Compound 367] | – | – | – | 20 | 0
19 | C#CCN(C)C(=O)c1cc(NS(=O)(=O)C(F)(F)F)c(C)c(C)c1C [Compound 368] | – | – | – | 60 | 20
20 | Cc1c(C(=O)N2CCC(C)CC2)cc(N(COC(=O)C(C)(C)C)S(=O)(=O)C(F)(F)F)c(C)c1C [Compound 369] | – | – | – | 20 | 0
21 | COC1CCN(C(=O)c2cc(N(COC(=O)C(C)(C)C)S(=O)(=O)C(F)(F)F)c(C)c(C)c2C)CC1 [Compound 370] | – | – | – | 20 | 10
22 | C#CCN(C)C(=O)c1cc(N(COC(=O)C(C)(C)C)S(=O)(=O)C(F)(F)F)c(C)c(C)c1C [Compound 371] | – | – | – | 60 | 0
